Results from patent US8609413B2, “Neurons, astrocytes and oligodendrocytes differentiated from a mammalian pluripotent or neural stem cells exposed to a pyridine deriviative” (Research Development Foundation, priority 2007, dated 2013).

Assays:
mouse ES cells = settings: literature reports; cited from earlier work
human ES cells = test: TWS119 tested by the inventors on human ES cells; format: cell-based
[1] = test system: human ESC-derived NPC / ESC aggregates; test: Air/liquid interface three-dimensional culture with added factors; format: cell-based; settings: exogenously added factor
Description: Air/liquid interface expansion/differentiation of NPC may be performed via the following protocol. One or more rosettes-enriched clusters may be manually removed and multiple clusters (e.g., about 5-10 clusters) may be plated on a hydrophilic polytetrafluoroethylene (PTFE) membrane (e.g., 6 mm diameter, 0.4 μm, BioCell-Interface, La Chaux-de-Fonds, Switzerland). This membrane may be deposited on a Millicell®-CM (0.4 μm) Culture Plate Insert (Millipore) (FIG. 5A). N2 medium may preferably be added (e.g., about 1 ml) underneath the membrane insert.
Air/liquid interface expansion/differentiation of NPC. Rosettes-enriched cluster were manually removed and 5-10 clusters were plated on a hydrophilic polytetrafluoroethylene (PTFE) membrane (6 mm diameter, 0.4 μm, BioCell-Interface, La Chaux-de-Fonds, Switzerland). This membrane was deposited on a Millicell®-CM (0.4 μm) Culture Plate Insert (Millipore) (FIG. 1). One ml of N2 medium was added underneath the membrane insert.

Compound: Cc1cccc(C#Cc2ccccc2)n1 [MPEP, 2-methyl-6-(phenylethynyl)-pyridine]
- neuronal differentiation of mouse ES cells (mouse ES cells): enhances their differentiation towards neurons

Compound: Nc1cccc(-c2cc3c(Oc4cccc(O)c4)ncnc3[nH]2)c1 [TWS119]
- cell growth (human ES cells): decreased cell growth
- neuronal differentiation (human ES cells): only small effect on neuronal differentiation
- neuronal differentiation of mouse ES cells (mouse ES cells): enhanced neuronal differentiation of mouse ES cells

Compound: EGF: epidermal growth factor
- phenotype of engineered tissue [1]: did not induce phenotypic changes
- size of engineered tissue [1]: moderate increase

Compound: FGF-2: basic fibroblast growth factor, exogenously added growth factor
- phenotype of engineered tissue [1]: did not induce phenotypic changes
- size of engineered tissue [1]: moderate increase
